# Data: ChEMBL document CHEMBL1909046, “DrugMatrix in vitro pharmacology data”
# Tests used:
# [1] = DRUGMATRIX: Nicotinic Acetylcholine radioligand binding (ligand: [125I] Epibatidine); assay type: cell membranes, Membrane; details: imr-32; Not Active = under 50% inhibition at 10 µM
# Caspase-1 = target: T1, Caspase-1 (Homo sapiens, UniProt P29466); design: species or system Escherichia coli;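 note: Caspase-1 enzyme inhibition assay with a peptide substrate; in other assays of this panel Not Active means under 50% inhibition at 10 µM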
# T1 sequence (P29466 whole entry): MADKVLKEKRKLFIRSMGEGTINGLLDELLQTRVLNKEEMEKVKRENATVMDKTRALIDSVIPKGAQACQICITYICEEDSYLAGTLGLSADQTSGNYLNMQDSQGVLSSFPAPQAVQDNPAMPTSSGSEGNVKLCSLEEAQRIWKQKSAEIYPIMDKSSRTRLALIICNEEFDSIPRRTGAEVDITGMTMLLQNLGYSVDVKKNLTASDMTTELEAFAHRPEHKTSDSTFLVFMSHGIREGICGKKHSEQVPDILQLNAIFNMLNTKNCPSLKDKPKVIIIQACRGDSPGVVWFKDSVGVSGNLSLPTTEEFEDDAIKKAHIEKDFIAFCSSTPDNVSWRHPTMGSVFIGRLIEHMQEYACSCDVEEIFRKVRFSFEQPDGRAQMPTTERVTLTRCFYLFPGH
# Calcitonin receptor = target: T2, Calcitonin receptor (Homo sapiens, UniProt P30988); assay type: cell membranes, Membrane; details: t47d; note: in other assays of this panel Not Active means under 50% inhibition at 10 µM
# T2 sequence (P30988 whole entry): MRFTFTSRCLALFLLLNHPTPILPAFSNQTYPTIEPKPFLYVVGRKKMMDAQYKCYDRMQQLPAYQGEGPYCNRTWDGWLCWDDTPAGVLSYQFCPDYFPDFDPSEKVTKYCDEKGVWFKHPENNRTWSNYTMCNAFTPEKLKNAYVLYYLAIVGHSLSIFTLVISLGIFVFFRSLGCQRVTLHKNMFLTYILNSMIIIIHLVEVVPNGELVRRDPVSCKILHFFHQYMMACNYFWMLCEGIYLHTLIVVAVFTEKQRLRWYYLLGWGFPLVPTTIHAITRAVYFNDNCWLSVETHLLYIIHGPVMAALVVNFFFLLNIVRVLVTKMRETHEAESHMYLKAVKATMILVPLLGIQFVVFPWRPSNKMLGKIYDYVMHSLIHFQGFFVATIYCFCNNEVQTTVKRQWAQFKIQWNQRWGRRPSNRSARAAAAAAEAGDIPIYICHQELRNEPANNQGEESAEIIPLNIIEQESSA
# Cytochrome P450 2C9 = Cytochrome P450 2C9 (Homo sapiens, UniProt P11712); details: bti-tn-5b1-4; note: in other assays of this panel Not Active means under 50% inhibition at 10 µM
# Sequence of Cytochrome P450 2C9 (P11712 whole entry): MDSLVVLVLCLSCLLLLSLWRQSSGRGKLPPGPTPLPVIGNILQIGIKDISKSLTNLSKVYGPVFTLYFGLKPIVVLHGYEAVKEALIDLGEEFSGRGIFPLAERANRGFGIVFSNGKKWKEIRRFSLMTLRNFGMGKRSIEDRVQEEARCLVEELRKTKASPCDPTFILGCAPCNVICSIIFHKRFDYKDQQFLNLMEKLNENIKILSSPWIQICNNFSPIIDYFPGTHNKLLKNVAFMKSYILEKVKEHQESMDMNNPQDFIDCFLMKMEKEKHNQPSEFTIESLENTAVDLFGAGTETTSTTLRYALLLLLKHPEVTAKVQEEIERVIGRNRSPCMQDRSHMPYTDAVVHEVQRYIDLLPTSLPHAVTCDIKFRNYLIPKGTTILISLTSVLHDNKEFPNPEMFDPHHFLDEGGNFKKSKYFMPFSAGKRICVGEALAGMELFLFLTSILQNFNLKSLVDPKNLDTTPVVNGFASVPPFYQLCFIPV
# [2] = DRUGMATRIX: GABAA, Flunitrazepam, Central radioligand binding (ligand: [3H] Flunitrazepam); assay type: cell membranes, Rattus norvegicus, Wistar, Brain, Membrane; details: Not Active = under 50% inhibition at 10 µM
# [3] = target: Matrix metalloproteinase-9 (Homo sapiens, UniProt P14780); assay type: cell-based;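 note: inhibition of isolated MMP-9 enzyme activity toward a synthetic peptide substrate, from the DrugMatrix protease screening panel; in other assays of this panel Not Active means under 50% inhibition at 10 µM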
# Sequence of Matrix metalloproteinase-9 (P14780 whole entry): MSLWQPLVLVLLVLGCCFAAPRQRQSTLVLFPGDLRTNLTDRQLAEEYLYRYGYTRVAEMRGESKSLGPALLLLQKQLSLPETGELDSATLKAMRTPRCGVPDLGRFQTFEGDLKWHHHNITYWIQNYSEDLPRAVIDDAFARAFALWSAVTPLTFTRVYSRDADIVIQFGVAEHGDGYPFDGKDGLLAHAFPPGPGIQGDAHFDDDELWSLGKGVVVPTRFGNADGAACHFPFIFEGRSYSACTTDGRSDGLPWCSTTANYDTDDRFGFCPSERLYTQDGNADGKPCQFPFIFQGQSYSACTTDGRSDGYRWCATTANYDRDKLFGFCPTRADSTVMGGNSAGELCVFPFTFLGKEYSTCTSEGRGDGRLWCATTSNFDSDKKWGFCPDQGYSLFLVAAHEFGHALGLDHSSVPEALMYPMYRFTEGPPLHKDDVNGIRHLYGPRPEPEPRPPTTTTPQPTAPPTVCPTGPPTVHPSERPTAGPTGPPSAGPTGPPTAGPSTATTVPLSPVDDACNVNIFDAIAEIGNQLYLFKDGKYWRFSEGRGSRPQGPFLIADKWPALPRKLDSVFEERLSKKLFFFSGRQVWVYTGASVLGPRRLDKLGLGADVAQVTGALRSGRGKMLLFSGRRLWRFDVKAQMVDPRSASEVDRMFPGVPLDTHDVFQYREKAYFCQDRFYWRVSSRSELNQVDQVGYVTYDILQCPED
# [4] = DRUGMATRIX: ATPase, Na+/K+ enzyme inhibition (substrate: ATP); assay type: tissue-based, Sus scrofa, Heart; details: Not Active = under 50% inhibition at 10 µM
# [5] = target: T3, Muscarinic acetylcholine receptor M5 (Homo sapiens, UniProt P08912); assay type: cell membranes, CHO-K1, Membrane; details: cho-k1; note: in other assays of this panel Not Active means under 50% inhibition at 10 µM
# T3 sequence (P08912 whole entry): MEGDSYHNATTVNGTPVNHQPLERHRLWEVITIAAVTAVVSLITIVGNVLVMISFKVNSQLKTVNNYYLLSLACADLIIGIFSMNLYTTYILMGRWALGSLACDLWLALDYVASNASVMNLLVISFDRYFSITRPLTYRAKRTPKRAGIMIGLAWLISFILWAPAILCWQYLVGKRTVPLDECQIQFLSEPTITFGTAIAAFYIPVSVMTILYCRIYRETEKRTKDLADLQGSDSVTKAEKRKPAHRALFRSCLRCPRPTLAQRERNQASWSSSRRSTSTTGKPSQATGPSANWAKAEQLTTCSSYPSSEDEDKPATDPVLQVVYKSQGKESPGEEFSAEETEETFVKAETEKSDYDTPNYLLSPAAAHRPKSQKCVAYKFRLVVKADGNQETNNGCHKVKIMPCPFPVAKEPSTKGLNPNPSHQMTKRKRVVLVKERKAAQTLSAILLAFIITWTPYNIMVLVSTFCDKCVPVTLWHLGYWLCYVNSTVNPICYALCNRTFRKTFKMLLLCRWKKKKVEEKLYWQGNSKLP
# [6] = target: Kappa-type opioid receptor (Homo sapiens, UniProt P41145); test: DRUGMATRIX: Opiate kappa (OP2, KOP) radioligand binding (ligand: [3H] Diprenorphine); assay type: cell membranes, HEK293, Membrane; details: hek293; Not Active = under 50% inhibition at 10 µM
# Sequence of Kappa-type opioid receptor (P41145 whole entry): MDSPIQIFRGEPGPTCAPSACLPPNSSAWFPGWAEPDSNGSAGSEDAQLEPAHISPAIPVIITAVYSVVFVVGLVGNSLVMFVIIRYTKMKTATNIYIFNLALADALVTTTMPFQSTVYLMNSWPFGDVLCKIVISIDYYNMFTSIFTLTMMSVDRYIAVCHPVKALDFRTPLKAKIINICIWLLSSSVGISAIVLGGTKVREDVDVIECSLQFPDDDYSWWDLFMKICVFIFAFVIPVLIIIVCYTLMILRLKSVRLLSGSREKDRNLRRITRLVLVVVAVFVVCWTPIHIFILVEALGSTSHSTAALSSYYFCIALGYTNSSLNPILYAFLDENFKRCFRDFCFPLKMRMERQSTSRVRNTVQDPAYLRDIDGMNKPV
# [7] = target: Vascular endothelial growth factor receptor 1 (Homo sapiens, UniProt P17948); assay type: cell-based; details: huvec; note: in other assays of this panel Not Active means under 50% inhibition at 10 µM
# Sequence of Vascular endothelial growth factor receptor 1 (P17948 whole entry): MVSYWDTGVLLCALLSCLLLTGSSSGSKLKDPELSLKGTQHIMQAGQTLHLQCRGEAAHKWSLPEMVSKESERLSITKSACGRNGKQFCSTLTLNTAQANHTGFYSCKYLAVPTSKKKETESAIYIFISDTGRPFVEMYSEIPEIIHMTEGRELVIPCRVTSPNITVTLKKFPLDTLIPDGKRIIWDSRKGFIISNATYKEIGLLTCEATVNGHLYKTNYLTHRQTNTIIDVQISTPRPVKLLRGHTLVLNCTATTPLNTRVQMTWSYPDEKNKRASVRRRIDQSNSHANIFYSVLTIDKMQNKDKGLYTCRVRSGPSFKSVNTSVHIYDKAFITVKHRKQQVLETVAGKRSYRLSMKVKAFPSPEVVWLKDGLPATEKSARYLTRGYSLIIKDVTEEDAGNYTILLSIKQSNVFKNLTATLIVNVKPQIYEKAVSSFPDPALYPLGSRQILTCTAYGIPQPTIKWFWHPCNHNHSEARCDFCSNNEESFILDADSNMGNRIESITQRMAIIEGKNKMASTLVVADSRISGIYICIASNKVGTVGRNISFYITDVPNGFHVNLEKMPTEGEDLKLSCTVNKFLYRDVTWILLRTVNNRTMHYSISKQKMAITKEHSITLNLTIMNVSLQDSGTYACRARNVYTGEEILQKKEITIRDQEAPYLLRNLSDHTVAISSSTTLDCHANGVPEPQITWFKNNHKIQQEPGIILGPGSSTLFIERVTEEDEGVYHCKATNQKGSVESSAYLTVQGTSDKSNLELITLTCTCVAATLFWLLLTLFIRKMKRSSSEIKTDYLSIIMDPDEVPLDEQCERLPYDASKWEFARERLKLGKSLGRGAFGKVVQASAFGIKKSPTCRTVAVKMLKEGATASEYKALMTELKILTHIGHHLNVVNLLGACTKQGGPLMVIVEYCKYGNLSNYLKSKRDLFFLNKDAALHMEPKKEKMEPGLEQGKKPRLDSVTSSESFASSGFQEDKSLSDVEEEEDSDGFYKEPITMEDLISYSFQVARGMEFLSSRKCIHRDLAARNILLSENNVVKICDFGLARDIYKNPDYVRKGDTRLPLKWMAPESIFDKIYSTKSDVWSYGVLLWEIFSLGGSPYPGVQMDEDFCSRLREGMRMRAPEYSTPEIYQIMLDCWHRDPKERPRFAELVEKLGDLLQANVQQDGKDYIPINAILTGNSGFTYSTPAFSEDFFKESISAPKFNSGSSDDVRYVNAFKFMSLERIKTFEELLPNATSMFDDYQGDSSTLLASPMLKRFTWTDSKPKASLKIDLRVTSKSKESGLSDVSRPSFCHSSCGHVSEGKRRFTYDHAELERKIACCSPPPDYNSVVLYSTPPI
# [8] = target: T4, Type-2 angiotensin II receptor (Homo sapiens, UniProt P50052); assay type: cell-based; details: cho-k1; note: in other assays of this panel Not Active means under 50% inhibition at 10 µM
# T4 sequence (P50052 whole entry): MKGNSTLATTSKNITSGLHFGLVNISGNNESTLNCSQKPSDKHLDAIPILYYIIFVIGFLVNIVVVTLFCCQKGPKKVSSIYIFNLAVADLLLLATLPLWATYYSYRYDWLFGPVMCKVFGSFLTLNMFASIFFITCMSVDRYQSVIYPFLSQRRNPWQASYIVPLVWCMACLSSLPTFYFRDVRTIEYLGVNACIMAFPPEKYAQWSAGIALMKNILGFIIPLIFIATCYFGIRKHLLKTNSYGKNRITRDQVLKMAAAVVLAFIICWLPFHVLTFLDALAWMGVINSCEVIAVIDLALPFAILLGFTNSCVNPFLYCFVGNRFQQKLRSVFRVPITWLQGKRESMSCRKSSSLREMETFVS
# [9] = DRUGMATRIX: Phorbol Ester radioligand binding (ligand: [3H] PDBu); assay type: cell membranes, Mus musculus, ICR, Brain, Membrane; details: Not Active = under 50% inhibition at 10 µM
smiles,measurement,setting,value
OCc1ccccc1 [BENZYL ALCOHOL],IC50,[1],Not Active
same,Ki,[1],Not Active
same,IC50,Caspase-1,Not Active
same,IC50,Calcitonin receptor,Not Active
same,IC50,Cytochrome P450 2C9,Not Active
same,Ki,Cytochrome P450 2C9,Not Active
same,IC50,[2],Not Active
same,Ki,[2],Not Active
same,IC50,[3],Not Active
same,IC50,[4],Not Active
same,Ki,[4],Not Active
same,IC50,[5],Not Active
same,IC50,[6],Not Active
same,IC50,[7],Not Active
same,IC50,[8],Not Active
same,IC50,[9],Not Active
same,Ki,[9],Not Active
CCCc1cc(=O)[nH]c(=S)[nH]1 [PROPYLTHIOURACIL],IC50,[1],Not Active
same,Ki,[1],Not Active
same,IC50,Caspase-1,Not Active
same,IC50,Calcitonin receptor,Not Active
same,IC50,Cytochrome P450 2C9,Not Active
same,Ki,Cytochrome P450 2C9,Not Active
same,IC50,[2],Not Active
same,Ki,[2],Not Active
same,IC50,[3],Not Active
same,IC50,[4],Not Active
same,Ki,[4],Not Active
same,IC50,[5],Not Active
same,IC50,[6],Not Active
same,IC50,[7],Not Active
same,IC50,[8],Not Active
same,IC50,[9],Not Active
same,Ki,[9],Not Active
C=C1CC[C@H](O)C/C1=C/C=C1\CCC[C@]2(C)[C@@H]([C@H](C)/C=C/[C@H](C)C(C)C)CC[C@@H]12 [ERGOCALCIFEROL],IC50,[1],Not Active
same,Ki,[1],Not Active
same,IC50,Caspase-1,Not Active
same,IC50,Calcitonin receptor,Not Active
same,IC50,Cytochrome P450 2C9,Not Active
same,Ki,Cytochrome P450 2C9,Not Active
same,IC50,[2],Not Active
same,Ki,[2],Not Active
same,IC50,[3],Not Active
same,IC50,[4],Not Active
same,Ki,[4],Not Active
same,IC50,[5],Not Active
same,IC50,[6],Not Active
same,IC50,[7],Not Active
same,IC50,[8],Not Active
same,IC50,[9],Not Active
same,Ki,[9],Not Active
Cc1ccccc1N1CCN(CCc2nnc3n2CCCC3)CC1 [DAPIPRAZOLE],IC50,[1],Not Active
same,Ki,[1],Not Active
same,IC50,Caspase-1,Not Active
same,IC50,Calcitonin receptor,Not Active
same,IC50,Cytochrome P450 2C9,Not Active
same,Ki,Cytochrome P450 2C9,Not Active
same,IC50,[2],Not Active
same,Ki,[2],Not Active
same,IC50,[3],Not Active
same,IC50,[4],Not Active
same,Ki,[4],Not Active
same,IC50,[5],Not Active
same,IC50,[6],Not Active
same,IC50,[7],Not Active
same,IC50,[8],Not Active
same,IC50,[9],Not Active
same,Ki,[9],Not Active
CC=CC(=O)N(CC)c1ccccc1C,IC50,[1],Not Active
same,Ki,[1],Not Active
same,IC50,Caspase-1,Not Active
same,IC50,Calcitonin receptor,Not Active
same,IC50,Cytochrome P450 2C9,Not Active
same,Ki,Cytochrome P450 2C9,Not Active
same,IC50,[2],Not Active
same,Ki,[2],Not Active
same,IC50,[3],Not Active
same,IC50,[4],Not Active
same,Ki,[4],Not Active
same,IC50,[5],Not Active
same,IC50,[6],Not Active
same,IC50,[7],Not Active
same,IC50,[8],Not Active
same,IC50,[9],Not Active
same,Ki,[9],Not Active
COc1ccc(CN(CCN(C)C)c2ccccn2)cc1 [PYRILAMINE],IC50,[1],Not Active
same,Ki,[1],Not Active
same,IC50,Caspase-1,Not Active
same,IC50,Calcitonin receptor,Not Active
same,IC50,Cytochrome P450 2C9,Not Active
same,Ki,Cytochrome P450 2C9,Not Active
same,IC50,[2],Not Active
same,Ki,[2],Not Active
same,IC50,[3],Not Active
same,IC50,[4],Not Active
same,Ki,[4],Not Active
same,IC50,[5],Not Active
same,IC50,[6],Not Active
same,IC50,[7],Not Active
same,IC50,[8],Not Active
same,IC50,[9],Not Active
same,Ki,[9],Not Active
CC[C@@]1(O)C(=O)OCc2c1cc1n(c2=O)Cc2cc3ccccc3nc2-1 [CAMPTOTHECIN],IC50,[1],Not Active
same,Ki,[1],Not Active
same,IC50,Caspase-1,Not Active
same,IC50,Calcitonin receptor,Not Active
same,IC50,Cytochrome P450 2C9,Not Active
same,Ki,Cytochrome P450 2C9,Not Active
same,IC50,[2],Not Active
same,Ki,[2],Not Active
same,IC50,[3],Not Active
same,IC50,[4],Not Active
same,Ki,[4],Not Active
same,IC50,[5],Not Active
same,IC50,[6],Not Active
same,IC50,[7],Not Active
same,IC50,[8],Not Active
same,IC50,[9],Not Active
same,Ki,[9],Not Active
CC(=O)O[C@]1(C(C)=O)CC[C@H]2[C@@H]3C=C(Cl)C4=CC(=O)CC[C@]4(C)[C@H]3CC[C@@]21C [CHLORMADINONE ACETATE],IC50,[1],Not Active
same,Ki,[1],Not Active
same,IC50,Caspase-1,Not Active
same,IC50,Calcitonin receptor,Not Active
same,IC50,Cytochrome P450 2C9,Not Active
same,Ki,Cytochrome P450 2C9,Not Active
same,IC50,[2],Not Active
same,Ki,[2],Not Active
same,IC50,[3],Not Active
same,IC50,[4]; read-out: IC50,4.57 µM
same,IC50,[5],Not Active
same,IC50,[6],Not Active
same,IC50,[7],Not Active
same,IC50,[8],Not Active
same,IC50,[9],Not Active
same,Ki,[9],Not Active
C[C@]12CCC(=O)C=C1CC[C@@H]1[C@@H]2C(=O)C[C@@]2(C)[C@H]1CC[C@]2(O)C(=O)CO [CORTISONE],IC50,[1],Not Active
same,Ki,[1],Not Active
same,IC50,Caspase-1,Not Active
same,IC50,Calcitonin receptor,Not Active
same,IC50,Cytochrome P450 2C9,Not Active
same,Ki,Cytochrome P450 2C9,Not Active
same,IC50,[2],Not Active
same,Ki,[2],Not Active
same,IC50,[3],Not Active
same,IC50,[4],Not Active
same,Ki,[4],Not Active
same,IC50,[5],Not Active
same,IC50,[6],Not Active
same,IC50,[7],Not Active
same,IC50,[8],Not Active
same,IC50,[9],Not Active
same,Ki,[9],Not Active
Brc1ccccc1 [BROMOBENZENE],IC50,[1],Not Active
same,Ki,[1],Not Active
same,IC50,Caspase-1,Not Active
same,IC50,Calcitonin receptor,Not Active
same,IC50,Cytochrome P450 2C9,Not Active
same,Ki,Cytochrome P450 2C9,Not Active
same,IC50,[2],Not Active
same,Ki,[2],Not Active
same,IC50,[3],Not Active
same,IC50,[4],Not Active
same,Ki,[4],Not Active
same,IC50,[5],Not Active
same,IC50,[6],Not Active
same,IC50,[7],Not Active
same,IC50,[8],Not Active
same,IC50,[9],Not Active
same,Ki,[9],Not Active
